Test [1] deals with T1, E3 ubiquitin-protein ligase XIAP (Homo sapiens, UniProt P98170). Briefly: Counter Screen using XIAP-Bir3 for Chemical Antagonists of Bir1/2 domains of IAP-family anti-apoptotic proteins. [Related pubchem assays (depositor defined):AID1018, AID1449, AID1514, AID1638, AID1749, AID1750, AID488957, AID488963].
The target of test [2] is T1, E3 ubiquitin-protein ligase XIAP. Briefly: small molecules displacing peptide from XIAP – biochemical, IAP family, fluorescence polarization (AID 1018). It is filed as functional.
In test [3] the target is 26S proteasome non-ATPase regulatory subunit 14 (Homo sapiens, UniProt O00487). The experiment in a line: inhibition of proteasome subunit RPN11 – biochemical, fluorescence polarization, uHTS hits, confirmation (AID 602368). It counts as functional. (Fluorescence polarisation rises when a labelled molecule tumbles more slowly, as on binding a larger partner.)
Another test deals with Prothrombin (Bos taurus, UniProt P00735). Briefly: thrombin protease inhibitors – biochemical, fluorescence polarization, uHTS hits, dose response (AID 602369). It counts as functional.
The target of test [4] is T2, Sentrin-specific protease 1 (Homo sapiens, UniProt Q9P0U3).
T2 sequence (Q9P0U3 whole entry): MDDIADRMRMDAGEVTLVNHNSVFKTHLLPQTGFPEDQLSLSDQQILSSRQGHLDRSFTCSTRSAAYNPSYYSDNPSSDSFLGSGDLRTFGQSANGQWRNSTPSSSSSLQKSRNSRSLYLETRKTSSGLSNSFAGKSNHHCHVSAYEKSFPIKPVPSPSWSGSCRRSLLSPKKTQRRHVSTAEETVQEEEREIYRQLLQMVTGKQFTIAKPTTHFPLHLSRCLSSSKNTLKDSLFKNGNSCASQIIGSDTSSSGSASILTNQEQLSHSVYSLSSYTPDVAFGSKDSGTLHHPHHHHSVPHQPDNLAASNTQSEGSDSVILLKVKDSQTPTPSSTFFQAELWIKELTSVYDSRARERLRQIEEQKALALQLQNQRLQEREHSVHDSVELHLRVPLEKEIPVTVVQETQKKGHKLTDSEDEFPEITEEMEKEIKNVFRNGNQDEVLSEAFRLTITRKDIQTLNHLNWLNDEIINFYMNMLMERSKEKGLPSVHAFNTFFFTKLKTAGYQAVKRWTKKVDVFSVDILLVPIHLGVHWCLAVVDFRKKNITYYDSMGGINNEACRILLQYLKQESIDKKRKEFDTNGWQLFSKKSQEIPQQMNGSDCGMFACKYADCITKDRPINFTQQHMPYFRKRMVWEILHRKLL
The experiment in a line: SENP1 catalytic domain blockers, concentration series – biochemical, kinetic FRET, dose response (AID 651697). It is filed as functional. Particulars: read-out: IC50_Mean.

The target of test [5] is T2, Sentrin-specific protease 1. The experiment in a line: Dose response confirmation of small molecule inhibitors of the catalytic domain of the SUMO protease, SENP1 in a FRET assay. It is filed as functional. Particulars: read-out: IC50_Mean.
Test [6] deals with G-protein coupled receptor 55 (Homo sapiens, UniProt Q9Y2T6). The experiment in a line: inhibition of LPI-stimulated GPR55 beta-arrestin translocation – imaging, U2OS, beta-arrestin-GFP, LPI agonist, primary screen (AID 2013).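 Further: antagonist potency measured as reduced agonist-driven arrestin aggregation.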 It counts as functional.
Test [7] concerns the target 72 kDa type IV collagenase (Homo sapiens, UniProt P08253). The experiment in a line: Dose Response validation of uHTS RPN11 inhibitor hits using a MMP-2 Fluorescence assay. It counts as functional.
The target of test [8] is T3, Calpain-2 catalytic subunit (Sus scrofa, UniProt P43367).
T3 sequence (P43367 whole entry): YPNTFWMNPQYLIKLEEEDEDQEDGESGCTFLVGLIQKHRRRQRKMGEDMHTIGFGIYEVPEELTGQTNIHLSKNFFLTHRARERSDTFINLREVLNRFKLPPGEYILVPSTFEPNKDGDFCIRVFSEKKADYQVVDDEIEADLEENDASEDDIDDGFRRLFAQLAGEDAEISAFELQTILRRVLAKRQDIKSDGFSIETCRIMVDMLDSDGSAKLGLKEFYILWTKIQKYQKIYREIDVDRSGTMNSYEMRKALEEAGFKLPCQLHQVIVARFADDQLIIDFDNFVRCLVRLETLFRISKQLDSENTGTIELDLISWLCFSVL
Briefly: m-calpain protease blockers, concentration series – biochemical, fluorogenic peptide substrate, dose response (AID 1420). It counts as functional.

Test [9] addresses Intestinal-type alkaline phosphatase (Homo sapiens, UniProt P09923). The experiment in a line: human intestinal alkaline phosphatase activators, dose response, biochemical, luminescence, uHTS hits (AID 463120). It counts as functional.
The target of test [10] is T4, Voltage-gated N-type calcium channel alpha-1B subunit/Amyloid beta A4 precursor protein-binding family A member 1 (Homo sapiens, UniProt Q00975+Q02410). It is filed as protein assay.
Test [11] deals with T4, Voltage-gated N-type calcium channel alpha-1B subunit/Amyloid beta A4 precursor protein-binding family A member 1. It is filed as protein assay. The source holds these as a separate data set.
The target in test [12] is Induced myeloid leukemia cell differentiation protein Mcl-1 (Homo sapiens, UniProt Q07820). It counts as functional.
Test [13] can be described thus: CCR5-tropic HIV-1 fusion blockers – cell-based, CCR5-tropic Env, dose response (AID 2279). It counts as functional.
Test [14] addresses T5, Long-chain-fatty-acid--AMP ligase FadD28 (Mycobacterium tuberculosis, UniProt P9WQ59).
T5 sequence (P9WQ59 whole entry): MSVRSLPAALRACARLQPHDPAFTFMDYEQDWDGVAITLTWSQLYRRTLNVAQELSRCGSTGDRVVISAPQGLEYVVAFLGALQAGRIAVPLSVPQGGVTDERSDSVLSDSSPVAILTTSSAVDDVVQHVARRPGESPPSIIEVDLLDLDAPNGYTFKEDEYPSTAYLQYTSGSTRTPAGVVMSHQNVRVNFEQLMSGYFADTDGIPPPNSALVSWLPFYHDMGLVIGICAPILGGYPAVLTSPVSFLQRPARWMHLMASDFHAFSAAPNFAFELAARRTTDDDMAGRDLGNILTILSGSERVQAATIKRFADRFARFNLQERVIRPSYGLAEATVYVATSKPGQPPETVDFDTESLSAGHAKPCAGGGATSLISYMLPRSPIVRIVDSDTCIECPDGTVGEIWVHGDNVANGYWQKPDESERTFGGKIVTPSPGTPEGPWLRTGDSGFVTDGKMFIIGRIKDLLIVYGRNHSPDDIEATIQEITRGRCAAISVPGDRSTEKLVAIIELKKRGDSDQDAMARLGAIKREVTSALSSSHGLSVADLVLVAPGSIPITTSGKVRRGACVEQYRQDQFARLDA
The experiment in a line: Fluorescence polarization aasay to screen for inhibitors that compete for the binding of FadD28 to a bisubstrate Measured in Biochemical System Using Plate Reader - 2147-01_Inhibitor_Dose_CherryPick_Activity. It is filed as functional, Mycobacterium tuberculosis H37Rv.

Test [15] addresses T4, Voltage-gated N-type calcium channel alpha-1B subunit/Amyloid beta A4 precursor protein-binding family A member 1. The experiment in a line: disruptors of Mint-PDZ/N-type channel peptide interaction – biochemical, HTRF, SAR follow-up (AID 2489). It counts as functional.
For test [16], the target named is Peroxisome proliferator-activated receptor gamma/Nuclear receptor coactivator 3 (Homo sapiens, UniProt P37231). The experiment in a line: TR-FRET dose response biochemical High Throughput Screening assay for agonists of the steroid receptor coactivator 3 (SRC-3) recruitment by the peroxisome proliferator-activated receptor gamma (PPAR gamma): non-selective agonists. [Related pubchem assays: 1301 (Confirmation screen.), 1048 (Primary screen.)]. It counts as functional.

Test [17] deals with Peroxisome proliferator-activated receptor gamma/Nuclear receptor coactivator 2 (Homo sapiens, UniProt P37231). Briefly: TR-FRET dose response biochemical High Throughput Screening assay for agonists of the steroid receptor coactivator 2 (SRC-2) recruitment by the peroxisome proliferator-activated receptor gamma (PPAR gamma): non-selective agonists. [Related pubchem assays: 1297, 1032 ]. It is filed as functional. (In TR-FRET formats the signal depends on donor and acceptor labels being close together.)

Test [18] deals with Peroxisome proliferator-activated receptor gamma/Nuclear receptor coactivator 1 (Homo sapiens, UniProt P37231). Briefly: TR-FRET dose response biochemical High Throughput Screening assay for agonists of the steroid receptor coactivator 1 (SRC-1) recruitment by the peroxisome proliferator-activated receptor gamma (PPAR gamma): non-selective agonists. [Related pubchem assays (depositor defined):AID1300, AID1808, AID504735, AID631]. It is filed as protein assay.

The record followed here is ChEMBL document CHEMBL1201862, “PubChem BioAssay data set” (2004).

Broadly, the EC50 is the concentration giving half of the maximal effect. A word on the AC50: it is the concentration giving half of the maximal activity seen.

Calls of active or inactive are those of the source. Bounds are passed on as bounds.

T4 sequence (Q00975 whole entry): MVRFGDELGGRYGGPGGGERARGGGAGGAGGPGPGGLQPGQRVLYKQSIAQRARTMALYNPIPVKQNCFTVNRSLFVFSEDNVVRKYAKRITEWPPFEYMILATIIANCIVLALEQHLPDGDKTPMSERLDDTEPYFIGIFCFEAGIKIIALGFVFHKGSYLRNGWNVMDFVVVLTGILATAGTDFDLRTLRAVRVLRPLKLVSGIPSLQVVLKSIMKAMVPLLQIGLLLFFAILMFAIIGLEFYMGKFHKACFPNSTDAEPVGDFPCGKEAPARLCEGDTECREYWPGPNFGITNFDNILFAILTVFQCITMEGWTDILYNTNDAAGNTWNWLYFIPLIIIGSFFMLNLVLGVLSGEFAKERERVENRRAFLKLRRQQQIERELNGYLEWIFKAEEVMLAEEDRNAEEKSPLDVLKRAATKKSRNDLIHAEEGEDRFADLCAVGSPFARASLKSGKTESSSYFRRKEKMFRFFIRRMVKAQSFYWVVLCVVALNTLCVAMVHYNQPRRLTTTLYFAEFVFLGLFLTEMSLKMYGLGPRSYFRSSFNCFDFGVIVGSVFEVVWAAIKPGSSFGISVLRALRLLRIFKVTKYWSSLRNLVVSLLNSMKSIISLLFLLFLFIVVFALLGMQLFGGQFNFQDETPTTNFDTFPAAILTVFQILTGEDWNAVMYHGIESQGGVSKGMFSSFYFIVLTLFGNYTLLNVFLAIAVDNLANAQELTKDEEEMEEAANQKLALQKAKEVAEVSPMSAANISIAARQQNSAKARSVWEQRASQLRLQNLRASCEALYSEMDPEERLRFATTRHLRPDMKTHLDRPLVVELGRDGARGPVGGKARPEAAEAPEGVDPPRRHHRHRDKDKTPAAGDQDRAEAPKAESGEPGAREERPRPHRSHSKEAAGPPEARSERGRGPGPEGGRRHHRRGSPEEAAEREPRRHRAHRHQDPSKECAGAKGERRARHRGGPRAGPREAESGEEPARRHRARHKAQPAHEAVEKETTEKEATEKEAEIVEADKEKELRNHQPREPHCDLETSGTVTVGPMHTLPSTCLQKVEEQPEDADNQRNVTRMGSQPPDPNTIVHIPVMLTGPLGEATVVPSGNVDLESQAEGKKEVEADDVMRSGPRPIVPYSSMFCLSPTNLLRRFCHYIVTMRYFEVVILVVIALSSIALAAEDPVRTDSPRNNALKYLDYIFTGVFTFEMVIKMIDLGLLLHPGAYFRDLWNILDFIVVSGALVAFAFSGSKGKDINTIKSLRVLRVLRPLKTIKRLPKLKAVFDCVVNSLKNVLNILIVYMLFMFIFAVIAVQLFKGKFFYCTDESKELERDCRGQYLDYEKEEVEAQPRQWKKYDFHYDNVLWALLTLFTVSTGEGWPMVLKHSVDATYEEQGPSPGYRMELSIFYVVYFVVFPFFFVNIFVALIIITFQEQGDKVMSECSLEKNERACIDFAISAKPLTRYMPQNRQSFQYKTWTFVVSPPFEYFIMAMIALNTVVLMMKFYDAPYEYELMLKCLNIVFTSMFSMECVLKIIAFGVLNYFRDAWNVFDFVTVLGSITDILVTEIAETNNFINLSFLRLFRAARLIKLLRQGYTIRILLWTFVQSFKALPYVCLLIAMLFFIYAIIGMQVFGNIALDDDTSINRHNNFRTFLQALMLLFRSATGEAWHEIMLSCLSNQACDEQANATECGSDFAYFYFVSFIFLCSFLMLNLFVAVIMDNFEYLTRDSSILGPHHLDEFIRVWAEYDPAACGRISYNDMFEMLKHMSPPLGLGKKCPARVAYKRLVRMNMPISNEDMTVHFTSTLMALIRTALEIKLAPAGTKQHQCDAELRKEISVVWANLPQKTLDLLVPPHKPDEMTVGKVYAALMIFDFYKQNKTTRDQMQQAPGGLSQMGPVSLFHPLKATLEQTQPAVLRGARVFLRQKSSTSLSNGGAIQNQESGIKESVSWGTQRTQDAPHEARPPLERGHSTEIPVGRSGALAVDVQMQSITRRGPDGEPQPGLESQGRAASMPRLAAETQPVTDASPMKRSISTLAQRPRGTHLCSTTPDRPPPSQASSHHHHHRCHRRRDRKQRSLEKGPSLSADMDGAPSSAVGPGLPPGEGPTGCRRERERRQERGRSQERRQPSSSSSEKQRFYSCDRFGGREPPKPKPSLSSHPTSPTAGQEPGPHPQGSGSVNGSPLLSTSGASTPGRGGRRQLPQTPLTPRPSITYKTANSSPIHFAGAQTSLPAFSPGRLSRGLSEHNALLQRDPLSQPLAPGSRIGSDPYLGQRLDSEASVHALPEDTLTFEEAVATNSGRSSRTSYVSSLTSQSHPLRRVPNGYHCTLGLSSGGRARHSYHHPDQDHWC
T4 sequence (Q02410 whole entry): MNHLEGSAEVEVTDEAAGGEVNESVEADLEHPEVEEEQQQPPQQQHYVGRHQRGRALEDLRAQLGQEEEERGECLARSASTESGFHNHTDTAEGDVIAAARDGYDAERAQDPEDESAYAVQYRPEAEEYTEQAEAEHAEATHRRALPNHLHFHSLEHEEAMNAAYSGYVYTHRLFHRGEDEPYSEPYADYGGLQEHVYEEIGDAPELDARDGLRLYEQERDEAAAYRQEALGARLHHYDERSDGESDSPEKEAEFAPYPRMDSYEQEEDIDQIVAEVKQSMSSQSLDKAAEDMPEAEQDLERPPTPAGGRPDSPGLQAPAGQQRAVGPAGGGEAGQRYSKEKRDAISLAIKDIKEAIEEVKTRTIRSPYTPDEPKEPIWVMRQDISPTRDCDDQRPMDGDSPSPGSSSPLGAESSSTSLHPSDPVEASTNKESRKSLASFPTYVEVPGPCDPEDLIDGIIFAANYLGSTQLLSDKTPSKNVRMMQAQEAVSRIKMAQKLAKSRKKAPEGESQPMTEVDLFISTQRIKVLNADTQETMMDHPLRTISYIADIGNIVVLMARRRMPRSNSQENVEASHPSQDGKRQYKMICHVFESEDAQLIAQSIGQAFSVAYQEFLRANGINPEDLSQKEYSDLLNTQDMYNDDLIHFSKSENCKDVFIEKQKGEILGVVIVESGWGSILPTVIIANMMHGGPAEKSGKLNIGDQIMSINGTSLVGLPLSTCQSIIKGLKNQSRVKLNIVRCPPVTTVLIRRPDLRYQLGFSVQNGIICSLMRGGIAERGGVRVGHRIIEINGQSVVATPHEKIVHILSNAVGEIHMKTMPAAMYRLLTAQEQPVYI
T1 sequence (P98170 whole entry): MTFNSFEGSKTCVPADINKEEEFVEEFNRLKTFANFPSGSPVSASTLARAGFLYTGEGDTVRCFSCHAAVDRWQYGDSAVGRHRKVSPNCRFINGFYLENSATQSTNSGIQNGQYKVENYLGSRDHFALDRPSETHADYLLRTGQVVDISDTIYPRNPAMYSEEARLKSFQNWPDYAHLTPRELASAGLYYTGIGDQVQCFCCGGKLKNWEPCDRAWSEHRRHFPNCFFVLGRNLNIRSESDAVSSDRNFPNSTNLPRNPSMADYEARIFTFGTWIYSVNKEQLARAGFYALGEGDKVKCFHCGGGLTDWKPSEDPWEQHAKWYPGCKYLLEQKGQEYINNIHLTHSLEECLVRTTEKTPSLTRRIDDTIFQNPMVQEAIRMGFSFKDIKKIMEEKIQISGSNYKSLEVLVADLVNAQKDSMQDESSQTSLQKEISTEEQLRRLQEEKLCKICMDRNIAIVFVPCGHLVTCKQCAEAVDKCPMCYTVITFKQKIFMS
G-protein coupled receptor 55, sequence (Q9Y2T6 whole entry): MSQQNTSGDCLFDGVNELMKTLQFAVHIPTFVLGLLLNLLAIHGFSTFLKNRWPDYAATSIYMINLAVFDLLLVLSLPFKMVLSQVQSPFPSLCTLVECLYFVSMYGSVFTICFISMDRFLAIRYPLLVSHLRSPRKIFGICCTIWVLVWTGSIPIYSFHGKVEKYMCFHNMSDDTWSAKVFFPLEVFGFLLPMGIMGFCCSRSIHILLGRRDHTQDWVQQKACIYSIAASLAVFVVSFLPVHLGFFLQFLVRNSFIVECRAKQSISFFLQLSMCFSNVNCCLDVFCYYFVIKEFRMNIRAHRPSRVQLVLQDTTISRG
26S proteasome non-ATPase regulatory subunit 14, sequence (O00487 whole entry): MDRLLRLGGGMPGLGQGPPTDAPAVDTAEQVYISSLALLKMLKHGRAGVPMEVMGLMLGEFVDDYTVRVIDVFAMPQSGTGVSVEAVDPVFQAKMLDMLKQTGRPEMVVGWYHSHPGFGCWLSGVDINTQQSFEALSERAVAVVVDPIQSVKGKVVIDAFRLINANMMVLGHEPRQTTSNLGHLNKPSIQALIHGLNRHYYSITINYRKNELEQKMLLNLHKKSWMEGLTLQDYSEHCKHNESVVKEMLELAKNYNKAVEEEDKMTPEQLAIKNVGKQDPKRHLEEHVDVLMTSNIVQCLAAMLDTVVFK
Induced myeloid leukemia cell differentiation protein Mcl-1, sequence (Q07820 whole entry, the tested form may be a part): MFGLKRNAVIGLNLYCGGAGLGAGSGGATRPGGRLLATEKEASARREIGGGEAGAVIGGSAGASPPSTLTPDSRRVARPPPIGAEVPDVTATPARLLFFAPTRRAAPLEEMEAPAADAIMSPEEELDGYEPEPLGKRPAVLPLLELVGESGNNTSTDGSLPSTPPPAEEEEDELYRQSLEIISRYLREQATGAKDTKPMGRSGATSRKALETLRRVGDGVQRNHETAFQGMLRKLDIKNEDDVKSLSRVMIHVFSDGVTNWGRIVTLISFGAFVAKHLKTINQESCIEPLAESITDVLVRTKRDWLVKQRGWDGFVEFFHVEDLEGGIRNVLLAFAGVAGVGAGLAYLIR

With `COc1cc2cnc(Cl)nc2cc1OC`, the IC50 in test [1] was > 100 µM (inactive); in test [2], > 100 µM (not active).

With `O=C(NCCSCc1ccccc1)c1ccc(C2SCC(=O)N2Cc2ccccc2)cc1` (stereo not drawn), the IC50 in [3] was 37.5 µM (active); at Prothrombin, 50.5 µM (active); in test [4], 11 µM (active); in [5], 19.1 µM (active); in [6], 1.49 µM (active); in [7], > 100 µM (inactive). In test [8], the IC50 is on record as 4.77 µM (not active).

With `O=C(CSc1nc[nH]n1)NCCc1ccccc1`, the EC50 in [9] was > 100 µM (inactive).

Take `Nc1ncnc(Sc2ccc(Cl)cc2)c1[N+](=O)[O-]`: the IC50 in test [1] was > 100 µM (inactive); in test [2], > 100 µM (not active).

Turning to `Cc1c2c(=O)n(-c3nc4ccccc4s3)nc-2cc(O)n1Cc1ccccc1`, the IC50 is 3.01 µM (active) in test [10], > 50 µM (inactive) in test [11], 4.32 µM (active) in test [12] and 17.4 µM (active) in [13]. Moreover, the AC50 in test [14] was 20.5 µM (active).

On to `Cc1ccc(/C=C/C(=O)N2CCN(c3ncccn3)CC2)o1`, for which the IC50 in test [10] is 4.71 µM (active); in [11], 4.77 µM (active); in [15] it was > 56.8 µM (inactive).

As to `O=C(CSc1ncnc2c1oc1ccccc12)NCc1ccc(F)cc1`, the EC50 in [16] is 83.1 µM (not active); in test [17] it was 20.5 µM (not active); in test [18] it was 21.9 µM (inactive).
